Like-named read-outs stand apart in the source and are kept apart here.
Legend:
[1] = test system: Fu5AH rat hepatoma cell line; assay: Test B. In Vitro Cell Culture Cholesterol Biosynthesis Screen; type: cell-based; settings: Fu5AH cells, 3 hours; for IC50: [14C]acetate incorporation, read-out: IC50 (50% inhibition of sterol biosynthesis)
Experimental: The cell culture is prepared as follows: Stock monolayer cultures of the Fu5AH rat hepatoma cell line (originally obtained from G. Rothblat; see Rothblat, Lipids 9, 526-535 (1974)) are routinely maintained in Eagle's Minimum Essential Medium (EMEM) supplemented with 10% fetal bovine serum (FBS) in 75 cm.^2 tissue culture flasks. For these studies, when the cultures reach confluence, they are removed by mild enzymatic treatment with 0.25% trypsin in Hanks' balanced salt solution (without calcium and magnesium). After centrifugation of the cell suspension and aspiration of the enzymatic solution, the cell pellet is resuspended in an appropriate volume of media for seeding into 60 mm. tissue culture dishes. The cultures are incubated at 37° C. in an atmosphere of high humidity and 5% carbon dioxide. When the cultures are confluent (approximately 5 days), they are ready for use. The culture media is aspirated from the dishes and replaced with 3 ml. of EMEM supplemented with 5 mg./ml. of delipidized serum protein (DLSP) prepared by the method of Rothblat et al., In Vitro 12, 554-557 (1976). […] Enhanced 3-hydroxy-3-methylglutaryl Coenzyme A reductase (HMG-CoA reductase) activity is measurable in the cells in response to the lack of exogenous sterol. Following approximately 24 hours incubation at 37° C. in the DLSP supplemented media, the assay is initiated by the addition of 3 μCi of [^14 C]acetate and the test substance solubilized in dimethylsulfoxide (DMSO) or distilled water. Solvent controls and compactin-treated controls are always prepared. Triplicate 60 mm. tissue culture dishes are run for each group. After 3 hours incubation at 37° C., the cultures are examined microscopically using an inverted phase contrast microscope. Notations are made of any morphological changes which may have occurred in the cultures. The media is aspirated and the cell layer is gently washed twice with 0.9% sodium chloride solution (saline). The cell layer is then harvested in 3 ml. of 0.9% saline by gentle scraping with a rubber policeman and transferred to a clean glass tube with Teflon lined cap. The dishes are rinsed with 3 ml. of 0.9% saline and rescraped, and the cells are combined with the first harvest. The tubes are centrifuged at 1500 r.p.m. for 10 minutes in an IEC PR-J centrifuge, and the supernatant is aspirated.
The cells are then extracted as follows: One ml. of 100% ethanol is added to the cell pellet followed by sonication for 10 seconds with a "LO" setting of 50 on a Bronwell Biosonik IV. One hundred μl. are taken for protein determination. One ml. of 15% potassium hydroxide (KOH) is added, and the samples are thoroughly vortexed. Saponification is accomplished by heating the ethanol-KOH treated samples at 60° C. for 60 minutes in a water bath. Following dilution of the samples with 2 ml. of distilled water, they are extracted three times with 7 ml. of petroleum ether. The petroleum ether extracts are then washed three times with 2 ml. of distilled water and finally taken to dryness under a stream of nitrogen.
The obtained samples are then analyzed by thin layer chromatography (TLC) as follows: Residues from the petroleum ether extraction are taken up in a small volume of hexane and spotted on silica gel 60 TLC plates (E. Merck). Development of the plates is carried out in a three phase solvent system consisting of 150 parts by volume hexane: 50 parts by volume diethyl ether: 5 parts by volume glacial acetic acid.
Visualization is accomplished in an iodine vapor chamber. The plates are divided into five sections such that each section contains the molecules having the following approximate Rf values: section 1- 0-0.4, section 2- 0.4-0.55, section 3- 0.55-0.7, section 4- 0.7-0.9 and section 5- 0.9-1.0. Section 2 contains the non-saponifiable sterols. The five sections of the TLC plates are scraped into scintillation vials.

HMG-CoA reductase = target: T1, HMG-CoA reductase (Rattus norvegicus, UniProt P51639); assay: Test A. In Vitro Microsomal Assay of HMG-CoA Reductase Inhibition; type: biochemical; settings: rat liver microsomes, male Sprague-Dawley rats; read-out: IC50 (50% inhibition of HMG-CoA reductase activity)
T1 construct: the microsomes are the source of the HMG-CoA reductase enzyme; from tissue; host or cells: liver microsomes, male Sprague-Dawley rats (150-225 g)
T1 sequence (P51639 1-887): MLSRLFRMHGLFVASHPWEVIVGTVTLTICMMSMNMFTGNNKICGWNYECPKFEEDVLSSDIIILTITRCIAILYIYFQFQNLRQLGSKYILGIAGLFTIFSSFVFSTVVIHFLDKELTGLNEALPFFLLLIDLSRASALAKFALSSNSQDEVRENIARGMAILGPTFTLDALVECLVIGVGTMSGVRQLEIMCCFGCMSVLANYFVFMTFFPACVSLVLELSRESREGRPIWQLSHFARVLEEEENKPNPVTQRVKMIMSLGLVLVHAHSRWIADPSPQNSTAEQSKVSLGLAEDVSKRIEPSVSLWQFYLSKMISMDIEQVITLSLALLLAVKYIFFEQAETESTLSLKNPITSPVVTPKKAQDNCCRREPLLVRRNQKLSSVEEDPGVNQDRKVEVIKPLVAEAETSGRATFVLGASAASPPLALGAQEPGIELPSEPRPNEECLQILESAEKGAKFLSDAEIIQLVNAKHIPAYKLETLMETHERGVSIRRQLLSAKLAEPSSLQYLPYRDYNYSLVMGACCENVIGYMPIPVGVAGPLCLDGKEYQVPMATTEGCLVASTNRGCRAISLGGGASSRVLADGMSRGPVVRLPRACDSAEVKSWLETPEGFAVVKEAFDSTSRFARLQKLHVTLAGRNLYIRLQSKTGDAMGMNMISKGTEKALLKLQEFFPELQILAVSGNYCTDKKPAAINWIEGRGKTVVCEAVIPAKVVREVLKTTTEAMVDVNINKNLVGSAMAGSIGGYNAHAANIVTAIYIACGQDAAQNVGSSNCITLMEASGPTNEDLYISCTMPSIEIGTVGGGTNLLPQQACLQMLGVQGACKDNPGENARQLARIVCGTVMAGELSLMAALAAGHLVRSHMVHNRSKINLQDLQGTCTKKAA
Experimental: Test A. In Vitro Microsomal Assay of HMG-CoA Reductase Inhibition:
200 μl. aliquots (1.08-1.50 mg./ml.) of rat liver microsomal suspensions, freshly prepared from male Sprague-Dawley rats (150-225 g. body weight), in Buffer A with 10 mmol. dithiothreitol are incubated with 10 μl. of a solution of the test substance in dimethylacetamide and assayed for HMG-CoA reductase activity as described in Ackerman et al., J. Lipid Res. 18, 408-413 (1977). In the assay the microsomes are the source of the HMG-CoA reductase enzyme which catalyzes the reduction of HMG-CoA to mevalonate. The assay employs a chloroform extraction to separate the product, [^14 C]mevalonolactone, formed by the HMG-CoA reductase reaction from the substrate, [^14 C]HMG-CoA. [^3 H]mevalonolactoneis added as an internal reference. Inhibition of HMG-CoA reductase is calculated from the decrease in specific activity [^14 C/^3 H]mevalonate) of test groups compared to controls.
IC50 is the concentration of the test substance in the assay system
calculated to produce a 50% inhibition of HMG-CoA reductase activity (Test
A) or sterol biosynthesis (Test B) .

sterol synthesis = assay: Test C. In Vivo Cholesterol Biosynthesis Inhibition Test; set-up: species or system rat; settings: for ED50: Rattus norvegicus, read-out: ED50 (inhibition of sterol synthesis)
Source text: Test C. In Vivo Cholesterol Biosynthesis Inhibition Test In vivo studies utilize male Wistar Royal Hart rats weighing 150±20 g. which have been kept for 7-10 days on an altered light cycle (6:30 A.M.-6:30 P.M. dark) housed two per cage and fed powdered Purina Rat Chow and water ad libitum. […] Controls receive vehicle alone. […] Two hours after mid-dark, blood samples are obtained under sodium hexobarbitol anesthesia and the serum separated by centrifugation. […] Inhibition of sterol synthesis is calculated from the reduction in the nCi of sterols formed from test groups compared to controls.

[2] = male Wistar Royal Hart rats, serum [14C] sterols

Row | SMILES | IC50 (HMG-CoA reductase) [µM] | ED50 (sterol synthesis; [2]) [mg/kg] | IC50 [1] [nM] | also measured
1 | Cn1c(/C=C\[C@@H]2C[C@@H](O)CC(=O)O2)c(-c2ccc(F)cc2)c2ccccc21 [Example 12, (Z)-Trans-6S-[2'-[3"-(4'"-fluorophenyl)-1"-methylindol-2"-yl]ethenyl]-4R-hydroxy-3,4,5,6-tetrahydro-2H-pyran-2-one] | 9.1 | – | – | inhibition at 1 µM ([1]; at 1 μmolar, read-out: percentage change (%Δ) of sterol biosynthesis): 16%
2 | Cc1cc(-c2c(/C=C/[C@H]3C[C@@H](O)CC(=O)O3)n(C(C)C)c3ccccc23)ccc1F (relative stereo) [Example 113] | 0.03 | 0.51 | – | –
3 | Cc1cc(C)c2c(-c3ccc(F)cc3)c(/C=C/[C@@H](O)C[C@@H](O)CC(=O)O)n(C(C)C)c2c1 (relative stereo) [Example 64] | 0.012 | 0.66 | 30 | –
4 | Cn1c(/C=C/C2CC(O)CC(=O)O2)c(-c2ccc(F)cc2)c2ccccc21 (stereo not drawn) [Example 3, (E)-6-[2'-[3"-(4'"-Fluorophenyl)-1"-methylindol-2"-yl]ethenyl]-4-hydroxy-3,4,5,6-tetrahydro-2H-pyran-2-one] | 1.66 | > 10 | 800 | –
5 | Cn1c(CC[C@@H]2C[C@@H](O)CC(=O)O2)c(-c2ccc(F)cc2)c2ccccc21 (relative stereo) [Example 89] | 9.3 | – | – | –
6 | CCOC(=O)CC(O)CC(O)/C=C/c1c(C)c2ccccc2n1-c1ccccc1 (stereo not drawn) [Example 132] | 1.62 | – | – | inhibition at 10 µM ([1]; at 10 μmolar, read-out: percentage change (%Δ) of sterol biosynthesis): 71%; percentage change of sterol synthesis (sterol synthesis; at 10 mg./kg., male Wistar Royal Hart rats): -35%
7 | CCC(C)C(=O)OC1CC(C)C=C2C=CC(C)C(CCC3CC(O)CC(=O)O3)C21 (stereo not drawn) [Mevinolin, reference compound] | – | – | – | ED50 (sterol synthesis): 0.41 mg/kg
8 | Cn1c(/C=C/C(O)CC(O)CC(=O)O)c(-c2ccc(F)cc2)c2ccc(OCc3ccccc3)cc21 (stereo not drawn) [Example 23] | 0.09 | – | 600 | –
9 | Cn1c(/C=C/[C@H]2C[C@@H](O)CC(=O)O2)c(-c2ccc(F)cc2)c2cccc(OCc3ccccc3)c21 (relative stereo) [Example 102] | > 1000 | – | – | –
10 | CCOC(=O)CC(O)CC(O)/C=C/c1c(-c2ccc(F)cc2)c2ccc(OCc3ccccc3)cc2n1C(C)C (stereo not drawn) [Example 75] | 0.0054 | – | – | –
11 | CC(C)n1c(/C=C/[C@@H](O)C[C@@H](O)CC(=O)O)c(-c2ccc(F)cc2)c2ccccc21 (relative stereo) [Example 8, Sodium erythro-(±)-(E)-3,5-dihydroxy-7-[3'-(4"-fluorophenyl)-1'-(1"-methylethyl)indol-2'-yl]hept-6-enoate] | – | – | 50 | ED50 (sterol synthesis): 0.09 mg/kg
12 | CCOC(=O)CC(O)CC(O)/C=C/c1c(-c2ccc(F)cc2)c2cc(Cl)ccc2n1C (stereo not drawn) [Example 43] | 9.6 | – | 740 | –
13 | COC(=O)CC(O)CC(O)/C=C/c1c(-c2ccc(F)cc2)c2ccccc2n1C (stereo not drawn) [Example 1, Methyl (E)-3,5-dihydroxy-7-[3'-(4"-fluorophenyl)-1'-methylindol-2'-yl]hept-6-enoate] | 1.7 | 6.2 | 800 | –
14 | Cc1c(/C=C/[C@@H]2C[C@@H](O)CC(=O)O2)n(-c2ccccc2)c2ccccc12 (relative stereo) [Example 142] | 1.3 | 6.1 | 1500 | –
15 | CCOC(=O)CC(O)CC(O)/C=C/c1c(-c2ccc(F)cc2)c2ccc(OCc3ccccc3)cc2n1C (stereo not drawn) [Example 21] | – | 12.1 | 200 | –
16 | CC(C)n1c(/C=C/[C@H](O)C[C@@H](O)CC(=O)O)c(-c2ccc(F)cc2)c2ccccc21 (relative stereo) [Example 9, Sodium threo-(±)-(E)-3,5-dihydroxy-7-[3'-(4"-fluorophenyl)-1'-(1"-methylethyl)indol-2'-yl]hept-6-enoate] | – | – | 220 | ED50 (sterol synthesis): 1.4 mg/kg
17 | CC[C@H](C)C(=O)O[C@H]1CCC=C2C=C[C@H](C)[C@H](CC[C@@H]3C[C@@H](O)CC(=O)O3)[C@H]21 [Compactin, reference compound] | 0.77 | 3.5 | 60 | –
18 | CCOC(=O)CC(O)CC(O)/C=C/c1c(-c2ccc(F)cc2)c2ccccc2n1CC (stereo not drawn) [Example 60] | 0.12 | 0.87 | – | –
19 | Cn1c(/C=C/[C@@H]2C[C@@H](O)CC(=O)O2)c(-c2ccc(F)cc2)c2ccccc21 (relative stereo) [Example 4 (a), (E)-Trans-6-[2'-[3"-(4'"-fluorophenyl)-1"-methylindol-2"-yl]ethenyl]-4-hydroxy-3,4,5,6-tetrahydro-2H-pyran-2-one] | 3 | 7 | 620 | –
20 | Cn1c(/C=C/[C@H](O)C[C@@H](O)CC(=O)O)c(-c2ccc(F)cc2)c2cccc(OCc3ccccc3)c21 (relative stereo) [Example 54] | 464 | – | – | –
21 | Cc1cc(C)cc(-c2c(/C=C/[C@@H](O)C[C@@H](O)CC(=O)O)n(C(C)C)c3ccccc23)c1 (relative stereo) [Example 14D, Sodium erythro-(±)-(E)-3,5-dihydroxy-7-[3'-(3",5"-dimethylphenyl)-1'-(1"-methylethyl)indol-2'-yl]hept-6-enoate] | 0.005 | 0.16 | – | –
22 | Cn1c(/C=C/[C@@H]2C[C@@H](O)CC(=O)O2)c(-c2ccc(F)cc2)c2ccccc21 [Example 10, (E)-Trans-6S-[2'-[3"-(4'"-fluorophenyl)-1"-methylindol-2"-yl]ethenyl]-4R-hydroxy-3,4,5,6-tetrahydro-2H-pyran-2-one] | 1.7 | – | 420 | percentage change of sterol synthesis (sterol synthesis; at 4 mg./kg., male Wistar Royal Hart rats): -47%
23 | CCn1c(/C=C/[C@H]2C[C@@H](O)CC(=O)O2)c(-c2ccc(F)cc2)c2ccccc21 (relative stereo) [Example 111] | – | – | 190 | –

— US5354772A, “Indole analogs of mevalonolactone and derivatives thereof” (Sandoz Pharm. Corp., priority 1993, dated 1994)
